Results from patent US11331289B2, “Antimicrobial composition” (priority 2017, dated 2022).

Columns and labels:
[1] = system: Methicillin-Resistant Staphylococcus aureus (MRSA) 16116, 16110; test: Oxyclo MIC of MRSA strains; format: cell-based
MRSA 16110 = test: Time-killing curve, inoculum 5.10^5 CFU/ml (MIC 1 μg/ml); format: cell-based, Staphylococcus aureus
Protocol: (§1) The objective of this study is to assess in vitro the time-killing curves of oxyclozanide against four strains of Methicillin-Resistant Staphylococcus from dogs.
(§2) Two Methicillin-Resistant Staphylococcus aureus (MRSA) and two Methicillin-Resistant Staphylococcus pseudintermedius (MRSP) isolated from the clinics have been tested.
(§3) The assessment of time-killing curves has been realized by a broth macrodilution method (Mueller-Hinton II Broth).
(§4) Oxyclozanide is diluted in (DMSO) into sterile tubes in order to obtain the following concentrations from 800 to 6.25 μg/ml. Those concentrations and stock standard solution are then diluted (1/10) in Mueller-Hinton II Broth in order to obtain the following concentrations from […] (See Table 2).
(§5) Each operation is performed under sterile conditions. Each working standard solution (10*the final active ingredient concentration) is distributed in tubes (1 ml, for a final volume of 10 ml after addition of 9 ml of inoculum). One tube without active ingredient is used as growth control (Concentration=0).
(§6) Bacterial isolates are sub-cultured from one cryobead on Columbia agar supplemented with 5% of blood. Pure cultures are incubated during 18-24 hours at 37° C. Three to five isolated colonies of similar appearance are selected from a previous culture and transferred into tubes containing 9 ml of Mueller-Hinton II Broth. The broth is incubated during 12-18 hours at 37° C. 0.5 to 1 ml of this broth is inoculated to another Mueller-Hinton II Broth 9 ml tube which is incubated during 3 to 4 hours at 37° C. to reach the exponential growth phase. The bacterial inoculum grown exponential phase is suspended to an optical density of McFarland standard scale 0.5 equivalent to a bacterial density of 10^8 CFU/ml and then adjusted to a concentration of about 5.10^5 CFU/ml as indicated by the guideline CLSI M26-A and to a second inoculum tested: 10^6 CFU/ml.
(§7) 9 ml of bacterial inoculum grown to exponential phase is added to 1 ml of active ingredient (or Mueller Hinton II Broth for the growth control). Tubes are incubated at 35° C. during 24 hours.
(§8) At times 0, 2, 4, 6 and 24 hours, 100 μl of broth of each tube is sampled and diluted in microplates:
(§9) Each well is re-cultured by streaking 10 μl on Columbia agar supplemented with 5% of blood. Plates are incubated at 37° C. during 18-24 hours incubation. Thus, residual bacterial concentrations are determined (CFU/ml). Results are expressed in log10 values of CFU/ml over-time in broth. Due to the procedure used, the minimal bacterial concentration that can be assessed is 10^2 CFU/ml.

MRSP 16127 = test: Time-killing curve, inoculum 5.10^5 CFU/ml (MIC 0.25 μg/ml); format: cell-based, Staphylococcus pseudintermedius
Protocol: as §1, §2, §3, §4, §5, §6, §7, §8, §9

[2] = system: Staphylococcus pseudintermedius; test: Time-killing curves, conclusion over strains; format: cell-based
Protocol: (§10) The time-killing curve is used to determine the bactericidal or bacteriostatic activity of the antibimicrobial substances. Time-killing curves of Oxyclozanide against canine isolates of Staphylococcus aureus and Staphylococcus pseudintermedius were obtained using broth macrodilution method. After contact of different fixed amounts of Oxyclozanide with an inoculum, viable bacteria are counted immediately after contact and after 1, 3, 6 and 24 hours. Counting is performed on agar medium without antimicrobial substance.
(§11) Results are analyzed by plotting log10 CFU/ml versus time for each tested concentration. Bactericidal activity as defined by 99.9% killing of the inoculum is determined from time-killing curves by noting the presence of a ≥3 log10 decrease in CFU/ml.
(§12) Bactericidal activity as defined by 99.9% killing of the inoculum is determined from time-killing curves by noting the presence of a ≥3 log10 decrease in CFU/ml.

Staphylococcus aureus = test: Time-killing curves, conclusion over strains; format: cell-based
Protocol: as §10, §11, §12

O=C(Nc1cc(Cl)cc(Cl)c1O)c1c(O)c(Cl)cc(Cl)c1Cl [Oxyclozanide]
MIC ([1]; MRSA 16110): 1 µg/mL | MIC ([1]; MRSA 16116): 0.5 µg/mL | Counting results (MRSA 16110; 1 MIC, 0 h): 4.100E+05 CFU/ml | Counting results (MRSA 16110; 1 MIC, 2 h): 9.300E+04 CFU/ml | Counting results (MRSA 16110; 1 MIC, 4 h): 6.500E+04 CFU/ml | Counting results (MRSA 16110; 1 MIC, 6 h): 1.100E+05 CFU/ml | Counting results (MRSA 16110; 1 MIC, 24 h): 6.100E+05 CFU/ml | Counting results (MRSA 16110; 2 MIC, 0 h): 4.100E+05 CFU/ml | Counting results (MRSA 16110; 2 MIC, 2 h): 3.300E+03 CFU/ml | Counting results (MRSA 16110; 2 MIC, 4 h): 1.800E+03 CFU/ml | Counting results (MRSA 16110; 2 MIC, 6 h): 4.000E+02 CFU/ml | Counting results (MRSA 16110; 2 MIC, 24 h): 1.000E+02 CFU/ml | Counting results (MRSA 16110; 4 MIC, 0 h): 4.100E+05 CFU/ml | Counting results (MRSA 16110; 4 MIC, 2 h): 3.000E+02 CFU/ml | Counting results (MRSA 16110; 4 MIC, 4 h): 1.000E+02 CFU/ml | Counting results (MRSA 16110; 4 MIC, 6 h): 1.000E+02 CFU/ml | Counting results (MRSA 16110; 4 MIC, 24 h): 1.000E+02 CFU/ml | Counting results (MRSA 16110; 8 MIC, 0 h): 4.100E+05 CFU/ml | Counting results (MRSA 16110; 8 MIC, 2 h): 2.000E+02 CFU/ml | Counting results (MRSA 16110; 8 MIC, 4 h): 1.000E+02 CFU/ml | Counting results (MRSA 16110; 8 MIC, 6 h): 1.000E+02 CFU/ml | Counting results (MRSA 16110; 8 MIC, 24 h): 1.000E+02 CFU/ml | Counting results (MRSA 16110; 16 MIC, 0 h): 4.100E+05 CFU/ml | Counting results (MRSA 16110; 16 MIC, 2 h): 1.000E+02 CFU/ml | Counting results (MRSA 16110; 16 MIC, 4 h): 1.000E+02 CFU/ml | Counting results (MRSA 16110; 16 MIC, 6 h): 1.000E+02 CFU/ml | Counting results (MRSA 16110; 16 MIC, 24 h): 1.000E+02 CFU/ml | Time to obtain bactericidal effect at 4 MIC (MRSA 16110; 16110/5.10^5 CFU/ml, >=3 log10 decrease in CFU): 2 h | Counting results (MRSA 16110; ¼ MIC, 0 h): 4.100E+05 CFU/ml | Counting results (MRSA 16110; ¼ MIC, 2 h): 1.400E+06 CFU/ml | Counting results (MRSA 16110; ¼ MIC, 4 h): 9.500E+07 CFU/ml | Counting results (MRSA 16110; ¼ MIC, 6 h): 1.600E+08 CFU/ml | Counting results (MRSA 16110; ¼ MIC, 24 h): 1.100E+09 CFU/ml | Counting results (MRSA 16110; ½ MIC, 0 h): 4.100E+05 CFU/ml | Counting results (MRSA 16110; ½ MIC, 2 h): 6.300E+05 CFU/ml | Counting results (MRSA 16110; ½ MIC, 4 h): 9.900E+06 CFU/ml | Counting results (MRSA 16110; ½ MIC, 6 h): 3.100E+07 CFU/ml | Counting results (MRSA 16110; ½ MIC, 24 h): 1.900E+08 CFU/ml | Counting results (MRSP 16127; 1 MIC, 0 h): 3.600E+05 CFU/ml | Counting results (MRSP 16127; 1 MIC, 2 h): 2.300E+05 CFU/ml | Counting results (MRSP 16127; 1 MIC, 4 h): 1.900E+06 CFU/ml | Counting results (MRSP 16127; 1 MIC, 6 h): 4.600E+06 CFU/ml | Counting results (MRSP 16127; 1 MIC, 24 h): 8.100E+08 CFU/ml | Counting results (MRSP 16127; 2 MIC, 0 h): 3.600E+05 CFU/ml | Counting results (MRSP 16127; 2 MIC, 2 h): 2.000E+05 CFU/ml | Counting results (MRSP 16127; 2 MIC, 4 h): 2.400E+05 CFU/ml | Counting results (MRSP 16127; 2 MIC, 6 h): 2.400E+05 CFU/ml | Counting results (MRSP 16127; 2 MIC, 24 h): 6.600E+05 CFU/ml | Counting results (MRSP 16127; 4 MIC, 0 h): 3.600E+05 CFU/ml | Counting results (MRSP 16127; 4 MIC, 2 h): 1.400E+04 CFU/ml | Counting results (MRSP 16127; 4 MIC, 4 h): 4.400E+03 CFU/ml | Counting results (MRSP 16127; 4 MIC, 6 h): 3.500E+03 CFU/ml | Counting results (MRSP 16127; 4 MIC, 24 h): 1.300E+03 CFU/ml | Counting results (MRSP 16127; 8 MIC, 0 h): 3.600E+05 CFU/ml | Counting results (MRSP 16127; 8 MIC, 2 h): 1.600E+03 CFU/ml | Counting results (MRSP 16127; 8 MIC, 4 h): 4.000E+02 CFU/ml | Counting results (MRSP 16127; 8 MIC, 6 h): 1.000E+02 CFU/ml | Counting results (MRSP 16127; 8 MIC, 24 h): 1.000E+02 CFU/ml | Counting results (MRSP 16127; 16 MIC, 0 h): 3.600E+05 CFU/ml | Counting results (MRSP 16127; 16 MIC, 2 h): 3.000E+02 CFU/ml | Counting results (MRSP 16127; 16 MIC, 4 h): 1.000E+02 CFU/ml | Counting results (MRSP 16127; 16 MIC, 6 h): 1.000E+02 CFU/ml | Counting results (MRSP 16127; 16 MIC, 24 h): 1.000E+02 CFU/ml | Time to obtain bactericidal effect at 4 MIC (MRSP 16127; 16127/5.10^5 CFU/ml, >=3 log10 decrease in CFU): 6 to 24 h | Counting results (MRSP 16127; ¼ MIC, 0 h): 3.600E+05 CFU/ml | Counting results (MRSP 16127; ¼ MIC, 2 h): 3.900E+05 CFU/ml | Counting results (MRSP 16127; ¼ MIC, 4 h): 5.900E+06 CFU/ml | Counting results (MRSP 16127; ¼ MIC, 6 h): 3.400E+07 CFU/ml | Counting results (MRSP 16127; ¼ MIC, 24 h): 2.900E+10 CFU/ml | Counting results (MRSP 16127; ½ MIC, 0 h): 3.600E+05 CFU/ml | Counting results (MRSP 16127; ½ MIC, 2 h): 3.300E+05 CFU/ml | Counting results (MRSP 16127; ½ MIC, 4 h): 2.700E+06 CFU/ml | Counting results (MRSP 16127; ½ MIC, 6 h): 2.400E+07 CFU/ml | Counting results (MRSP 16127; ½ MIC, 24 h): 2.900E+10 CFU/ml | Pharmacodynamic profile [2]: concentration-dependant | Contact time at which bactericidal effect (≥3 log10 decrease in CFU/ml) is observed ([2]; concentration of 4 μg/ml): 24 hours | Contact time at which bactericidal effect (≥3 log10 decrease in CFU/ml) is observed ([2]; concentration of 8 μg/ml): 6 to 24 hours | Pharmacodynamic profile (Staphylococcus aureus): concentration-dependant | Contact time at which bactericidal effect (≥3 log10 decrease in CFU/ml) is observed (Staphylococcus aureus; concentration of 4 μg/ml): 24 hours | Contact time at which bactericidal effect (≥3 log10 decrease in CFU/ml) is observed (Staphylococcus aureus; concentration of 8 μg/ml): 6 to 24 hours
